This note sets out measurements from ChEMBL document CHEMBL1201862, “PubChem BioAssay data set” (2004).

Experiment in all cases: inhibition of tumour cell growth, NCI panel, 48 h
In assay [1] the test system is OVCAR-3.
The subject of assay [2] is T47D.
Assay [3] deals with UACC-62.
The subject of assay [4] is UO-31.
The test system of assay [5] is A549.
Assay [6] has as its system HCT-15.
Assay [7] relates to Malme-3M.
The test system of assay [8] is K562.
Assay [9] relates to HCT-116.
The subject of assay [10] is Hs-578T.
The test system of assay [11] is COLO 205.
Assay [12] deals with NCI-H522.
In assay [13] the test system is SK-OV-3.
In assay [14] the test system is MOLT-4.
For assay [15], the system named is NCI-H226.
The test system of assay [16] is M14.
The subject of assay [17] is U-251.
The test system of assay [18] is PC-3.
The subject of assay [19] is SR.

Molecules are shown by their SMILES.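 How tested: cells in 96-well plates exposed to compound for 48 hours at five concentrations. Abbreviation: GI50, concentration required for 50% inhibition of growth.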 Activity calls are given as the source filed them. No stated cut-off is given here; in the data, active = GI50 up to about 1.1 µM and inactive = higher. Bounds are passed on as bounds.

In the case of `C=CCOc1cc(NC(=S)c2ccoc2C)ccc1OC`, the GI50 in [1] was > 100 µM (inactive); in assay [2], > 100 µM (inactive); in assay [3], > 100 µM (inactive); in assay [4] it was > 100 µM (inactive); in [5], > 100 µM (inactive); in [6] it was over 100 µM. In addition, the GI50 in assay [7], in [8], in [9], in [10], in assay [11] and in assay [12] was > 100 µM (inactive) in each case. Besides, the GI50 in [13] was > 100 µM (inactive); in assay [14], > 100 µM (inactive); in assay [15], > 100 µM (inactive); in assay [16], > 100 µM (inactive); in assay [17], 58.9 µM (inactive); in assay [18] it was > 100 µM (inactive).
For `COc1ccc(N2C(=O)CC(c3c[nH]c4ncccc34)C2=O)cc1` (stereo unspecified), the GI50 in assay [1] is 20.7 µM (inactive); in assay [2] it was 24.1 µM (inactive); in assay [3], > 50.9 µM (inactive); in [4], 32.4 µM (inactive); in [5] it was > 100 µM (inactive); in assay [6] it was 24.8 µM. Moreover, the GI50 in assay [7] was 22 µM (inactive); in assay [8], 8.09 µM (inactive); in [9], 22.5 µM (inactive); in assay [10], > 100 µM (inactive); in [11] it was 18.8 µM (inactive); in [12], 7.98 µM (inactive). Moreover, the GI50 in [13] was > 100 µM (inactive); in assay [14], > 20.7 µM (inactive); in [15] it was > 100 µM (inactive); in assay [16] it was 23 µM (inactive); in assay [17] it was > 100 µM (inactive); in assay [18], 19.4 µM (inactive).
On to `CCCCCC(O)[C@H]1C(=O)C[C@@H](O[Si](C)(C)C(C)(C)C)[C@@H]1/C=C/CCOCc1ccccc1` (stereo partly specified), for which the GI50 in assay [1] was 13.7 µM (inactive); in assay [2] it was 13.6 µM (inactive); in [3], 11.8 µM (inactive); in assay [4], 14.5 µM (inactive); in assay [5] it was 18 µM (inactive); in assay [6], 10.6 µM. For the same compound, the GI50 in assay [7] is 15.3 µM (inactive); in assay [8] it was > 36.5 µM (inactive); in assay [9], 6.9 µM (inactive); in assay [10], 7.19 µM (inactive); in assay [11], 16 µM (inactive); in assay [12], 3.88 µM (inactive). The GI50 in assay [13] is 16.8 µM (inactive); in assay [14], 4.46 µM (inactive); in assay [15], 14 µM (inactive); in assay [16], 12.6 µM (inactive); in assay [17], 12.1 µM (inactive); in assay [18] it was 12.1 µM (inactive).
As to `Cc1ccc(C2(c3ccc(C)c(O)c3C)CCN(C)CC2)c(C)c1O`, the GI50 is 54 µM (inactive) in assay [1]; 64.6 µM (inactive) in [2]; > 100 µM (inactive) in assay [3]; > 100 µM (inactive) in [4]; > 100 µM (inactive) in [5]; over 100 µM in assay [6]. In addition, the GI50 is 52.7 µM (inactive) in assay [7]; 84.7 µM (inactive) in [8]; 38.5 µM (inactive) in [9]; > 100 µM (inactive) in [10]; > 100 µM (inactive) in [12]; 49.8 µM (inactive) in [19]. For the same compound, the GI50 was > 100 µM (inactive) in [14]; > 100 µM (inactive) in [15]; 45.8 µM (inactive) in assay [16]; 39.4 µM (inactive) in assay [17]; 35 µM (inactive) in assay [18].
Take `C=C(C)[C@H]1C=C[C@@H](OC(C)=O)[C@@]2(COC(C)=O)[C@H](OC(=O)CCC)[C@H]3[C@@H](OC(C)=O)[C@@H](C)C[C@]3(O)C(=O)[C@@](C)(OC(C)=O)[C@H]12`: the GI50 was 27 µM (inactive) in assay [2]; 66.5 µM (inactive) in assay [3]; 33.4 µM (inactive) in assay [4]; 32.7 µM (inactive) in [5]; 36.2 µM in assay [6]; 45.3 µM (inactive) in assay [7]. The GI50 in assay [8] is 31.6 µM (inactive); in [9], 37.6 µM (inactive); in assay [10], 43.1 µM (inactive); in assay [11] it was 22 µM (inactive); in assay [12], 56 µM (inactive); in assay [19] it was 36.3 µM (inactive). For the same compound, the GI50 was 33.6 µM (inactive) in assay [14]; 40.1 µM (inactive) in assay [15]; 31.8 µM (inactive) in assay [16]; 33.9 µM (inactive) in assay [17]; 31.6 µM (inactive) in [18].
`C[C@H](CC[C@@H](O)C(C)(C)O)[C@H]1CC[C@@]2(C)[C@@H]3CC=C4[C@@H](CC[C@H](OC5OC(CO)C(O)C(O)C5O)C4(C)C)[C@]3(C)C(=O)C[C@]12C` (stereo partly specified): the GI50 is 65 µM (inactive) in assay [1]; 97.9 µM (inactive) in assay [2]; 58.1 µM (inactive) in [3]; 28.9 µM (inactive) in assay [4]; 37.2 µM (inactive) in assay [5]; 67.9 µM in assay [6]. For the same compound, the GI50 in assay [7] was 49.4 µM (inactive); in assay [8], 18.9 µM (inactive); in assay [9], 45.3 µM (inactive); in assay [10], 37.3 µM (inactive); in assay [11], 48.9 µM (inactive); in assay [12], 37.6 µM (inactive). Further, the GI50 was 31 µM (inactive) in assay [13]; 21.1 µM (inactive) in assay [14]; > 100 µM (inactive) in assay [15]; 31.1 µM (inactive) in [16]; 33.6 µM (inactive) in assay [17]; 75 µM (inactive) in assay [18].
Regarding `O=C1C(=CNc2ccccc2Cl)C(=O)N(c2ccccc2)C(=O)N1c1ccccc1`, the GI50 in assay [1] was > 100 µM (inactive); in assay [2], > 100 µM (inactive); in assay [3] it was > 100 µM (inactive); in [4], > 100 µM (inactive); in assay [5], > 100 µM (inactive); in assay [6], over 100 µM. Also, the GI50 was > 100 µM (inactive) in [7]; > 100 µM (inactive) in assay [8]; > 100 µM (inactive) in assay [9]; 80.4 µM (inactive) in assay [10]; > 100 µM (inactive) in assay [11]; > 100 µM (inactive) in assay [12]. For the same compound, the GI50 in [13] was > 100 µM (inactive); in assay [14], > 100 µM (inactive); in assay [15], > 100 µM (inactive); in [16], 92.7 µM (inactive); in assay [17], > 100 µM (inactive); in assay [18], > 100 µM (inactive).
Turning to `O=C1CC=C2C3CC4N(CCC45c4ccccc4N1C25)C/C3=C\CO` (stereo unspecified), the GI50 is > 100 µM (inactive) in assay [1]; > 100 µM (inactive) in assay [2]; > 100 µM (inactive) in assay [3]; > 100 µM (inactive) in assay [4]; > 100 µM (inactive) in assay [5]; over 100 µM in [6]. Besides, the GI50 in assay [7], in [8], in [9], in [10], in assay [11] and in assay [12] was > 100 µM (inactive) throughout. Besides, the GI50 in assay [13], in [14], in [15], in [17] and in assay [18] was > 100 µM (inactive) in each case.
